{"source": "EPA's ToxRefDB 2", "key": {"rat [1]": {"system": "rat", "conditions": "Prenatal developmental toxicity study, other, Oral, Gavage/Intubation, dose end: 15 GD"}, "rabbit [2]": {"system": "rabbit", "conditions": "Prenatal developmental toxicity study, himalayan, Oral, Gavage/Intubation, dose end: 19 GD"}, "mouse [3]": {"system": "mouse", "conditions": "Subchronic oral toxicity in rodents, other, Feed, dose end: 13 week, group: systemic"}, "dog [4]": {"system": "dog", "conditions": "Subchronic oral toxicity in nonrodent, beagle, Feed, dose end: 13 week, group: systemic, systemic / clinical chemistry / alanine aminotransferase (alt/sgpt) / alanine aminotransferase (alt/sgpt) + systemic / clinical chemistry / …"}, "mouse [5]": {"system": "mouse", "conditions": "Other (NonGuideline or Guideline Not Listed), Oral, Feed, dose end: 59 day, group: cannot be grouped"}, "rat [6]": {"system": "rat", "conditions": "Prenatal developmental toxicity study, other, Oral, Gavage/Intubation, dose end: 15 GD", "remark": "listed apart in the source"}, "rabbit [7]": {"system": "rabbit", "conditions": "Prenatal developmental toxicity study, other, Oral, Gavage/Intubation, dose end: 19 GD"}, "rat [8]": {"system": "rat", "conditions": "Subchronic oral toxicity in rodents, sprague dawley, Gavage/Intubation, dose end: 28 day, group: systemic"}, "mouse [9]": {"system": "mouse", "conditions": "Carcinogenicity, other, Oral, Feed, dose end: 78 week, group: systemic"}, "rat [10]": {"system": "rat", "conditions": "Subchronic dermal toxicity, sprague dawley, Topical, dose end: 28 day, group: systemic, systemic / clinical chemistry / alkaline phosphatase (alp/alk) / alkaline phosphatase (alp/alk) + systemic / clinical chemistry / glucose / …"}, "rat [11]": {"system": "rat", "conditions": "Subchronic oral toxicity in rodents, sprague dawley, Feed, dose end: 3 month, group: systemic"}, "dog [12]": {"system": "dog", "conditions": "Chronic toxicity; beagle; Oral; Feed; dose end: 52 week; group: systemic; systemic / clinical chemistry / creatinine / creatinine + systemic / clinical chemistry / urea nitrogen / urea + systemic / pathology …"}, "dog [13]": {"system": "dog", "conditions": "Subchronic oral toxicity in nonrodent, beagle, Feed, dose end: 28 day, group: systemic, systemic / in life observation / food consumption / food consumption + systemic / in life observation / body weight / body weight + systemic…"}, "rat [14]": {"system": "rat", "conditions": "Subchronic oral toxicity in rodents, sprague dawley, Feed, dose end: 28 day, group: systemic"}, "rat [15]": {"system": "rat", "conditions": "Combined chronic toxicity/carcinogenicity; sprague dawley; Oral; Feed; dose end: 24 month; group: systemic; systemic / pathology microscopic / kidney / infiltration cellular + systemic / pathology microscopic / kidney / nephropathy"}, "[16]": {"conditions": "group: developmental, systemic / in life observation / body weight / fetal weight"}, "[17]": {"conditions": "group: maternal, systemic / in life observation / body weight / body weight gain + systemic / in life observation / body weight / body weight + systemic / in…"}, "[18]": {"conditions": "group: developmental, developmental / developmental malformation / bone / fused + developmental / developmental malformation / bone / misshapen + developmental / …"}, "[19]": {"conditions": "group: maternal, systemic / in life observation / food consumption / food consumption + reproductive / reproductive performance / postimplantation loss / …"}, "[20]": {"conditions": "systemic / pathology microscopic / liver / hypertrophy"}, "[21]": {"conditions": "systemic / pathology microscopic / liver / hypertrophy + systemic / hematology / anemia / anemia - nos + systemic / hematology / erythrocyte…"}, "[22]": {"conditions": "systemic / pathology microscopic / liver / proliferation + systemic / organ weight / liver / absolute + systemic / organ weight / liver / …"}, "[23]": {"conditions": "group: developmental, developmental / developmental malformation / bone / incomplete ossification + developmental / developmental malformation / bone / irregular …"}, "[24]": {"conditions": "group: maternal, systemic / in life observation / body weight / body weight + systemic / in life observation / body weight / body weight gain + systemic / in…"}, "[25]": {"conditions": "group: maternal, systemic / in life observation / body weight / body weight gain + systemic / in life observation / food consumption / food consumption"}, "[26]": {"conditions": "group: maternal, systemic / in life observation / body weight / body weight gain + systemic / in life observation / food consumption / food consumption + …"}, "[27]": {"conditions": "systemic / pathology microscopic / kidney / dilatation + systemic / pathology microscopic / adrenal gland / fatty change + systemic / in …"}, "[28]": {"conditions": "systemic / pathology microscopic / liver / hypertrophy + systemic / pathology microscopic / liver / infiltration cellular + systemic / …"}, "[29]": {"conditions": "systemic / pathology microscopic / kidney / hyalinization + systemic / pathology microscopic / kidney / lesion(s) (nos)"}, "[30]": {"conditions": "systemic / pathology microscopic / kidney / hyalinization + systemic / pathology microscopic / kidney / lesion(s) (nos) + systemic / …"}, "[31]": {"conditions": "systemic / pathology microscopic / kidney / [other] + systemic / pathology microscopic / kidney / dilatation + systemic / pathology …"}, "[32]": {"conditions": "systemic / pathology microscopic / kidney / proliferation"}}}
{"smiles": "CN1COCN(Cc2cnc(Cl)s2)/C1=N/[N+](=O)[O-]", "note": "[Thiamethoxam]", "values": [{"measurement": "LEL", "setting": "rat [1]; [16]", "value": 1000, "unit": "mg/kg/day"}, {"measurement": "LOAEL", "setting": "rat [1]; [16]", "value": 1000, "unit": "mg/kg/day"}, {"measurement": "NEL", "setting": "rat [1]; [16]", "value": 500, "unit": "mg/kg/day"}, {"measurement": "NOAEL", "setting": "rat [1]; [16]", "value": 500, "unit": "mg/kg/day"}, {"measurement": "LOAEL", "setting": "rat [1]; group: maternal, systemic / in life observation / body weight / body weight gain", "value": 500, "unit": "mg/kg/day"}, {"measurement": "LEL", "setting": "rat [1]; [17]", "value": 500, "unit": "mg/kg/day"}, {"measurement": "NEL", "setting": "rat [1]; [17]", "value": 100, "unit": "mg/kg/day"}, {"measurement": "NOAEL", "setting": "rat [1]; [17]", "value": 100, "unit": "mg/kg/day"}, {"measurement": "LEL", "setting": "rabbit [2]; [18]", "value": 150, "unit": "mg/kg/day"}, {"measurement": "LOAEL", "setting": "rabbit [2]; [18]", "value": 150, "unit": "mg/kg/day"}, {"measurement": "NEL", "setting": "rabbit [2]; [18]", "value": 50, "unit": "mg/kg/day"}, {"measurement": "NOAEL", "setting": "rabbit [2]; [18]", "value": 50, "unit": "mg/kg/day"}, {"measurement": "LEL", "setting": "rabbit [2]; group: maternal, systemic / in life observation / food consumption / food consumption", "value": 50, "unit": "mg/kg/day"}, {"measurement": "LOAEL", "setting": "rabbit [2]; [19]", "value": 150, "unit": "mg/kg/day"}, {"measurement": "NEL", "setting": "rabbit [2]; [19]", "value": 15, "unit": "mg/kg/day"}, {"measurement": "NOAEL", "setting": "rabbit [2]; [19]", "value": 50, "unit": "mg/kg/day"}, {"measurement": "LEL", "setting": "mouse [3]; [20]", "value": 14.3, "unit": "mg/kg/day"}, {"measurement": "LOAEL", "setting": "mouse [3]; [20]", "value": 14.3, "unit": "mg/kg/day"}, {"measurement": "NEL", "setting": "mouse [3]; [21]", "value": 1.41, "unit": "mg/kg/day"}, {"measurement": "NOAEL", "setting": "mouse [3]; [21]", "value": 1.41, "unit": "mg/kg/day"}, {"measurement": "LEL", "setting": "dog [4]", "value": 32, "unit": "mg/kg/day"}, {"measurement": "LOAEL", "setting": "dog [4]", "value": 32, "unit": "mg/kg/day"}, {"measurement": "NEL", "setting": "dog [4]", "value": 8.23, "unit": "mg/kg/day"}, {"measurement": "NOAEL", "setting": "dog [4]", "value": 8.23, "unit": "mg/kg/day"}, {"measurement": "LEL", "setting": "mouse [5]; systemic / pathology microscopic / liver / proliferation", "value": 72, "unit": "mg/kg/day"}, {"measurement": "LOAEL", "setting": "mouse [5]; [22]", "value": "> 386", "unit": "mg/kg/day"}, {"measurement": "NEL", "setting": "mouse [5]; [22]", "value": 16, "unit": "mg/kg/day"}, {"measurement": "NOAEL", "setting": "mouse [5]; [22]", "value": "≥ 386", "unit": "mg/kg/day"}, {"measurement": "LOAEL", "setting": "rat [6]; [23]", "value": 750, "unit": "mg/kg/day"}, {"measurement": "NEL", "setting": "rat [6]; [23]", "value": 30, "unit": "mg/kg/day"}, {"measurement": "NOAEL", "setting": "rat [6]; [23]", "value": 200, "unit": "mg/kg/day"}, {"measurement": "LEL", "setting": "rat [6]; group: developmental, developmental / developmental malformation / bone / incomplete ossification + developmental / developmental malformation / bone / short …", "value": 200, "unit": "mg/kg/day"}, {"measurement": "LEL", "setting": "rat [6]; [24]", "value": 200, "unit": "mg/kg/day"}, {"measurement": "LOAEL", "setting": "rat [6]; [24]", "value": 200, "unit": "mg/kg/day"}, {"measurement": "NEL", "setting": "rat [6]; [24]", "value": 30, "unit": "mg/kg/day"}, {"measurement": "NOAEL", "setting": "rat [6]; [24]", "value": 30, "unit": "mg/kg/day"}, {"measurement": "LEL", "setting": "rabbit [7]; [16]", "value": 150, "unit": "mg/kg/day"}, {"measurement": "LOAEL", "setting": "rabbit [7]; [16]", "value": 150, "unit": "mg/kg/day"}, {"measurement": "NEL", "setting": "rabbit [7]; [16]", "value": 50, "unit": "mg/kg/day"}, {"measurement": "NOAEL", "setting": "rabbit [7]; [16]", "value": 50, "unit": "mg/kg/day"}, {"measurement": "LEL", "setting": "rabbit [7]; [25]", "value": 50, "unit": "mg/kg/day"}, {"measurement": "LOAEL", "setting": "rabbit [7]; [25]", "value": 50, "unit": "mg/kg/day"}, {"measurement": "NEL", "setting": "rabbit [7]; [26]", "value": 10, "unit": "mg/kg/day"}, {"measurement": "NOAEL", "setting": "rabbit [7]; [26]", "value": 10, "unit": "mg/kg/day"}, {"measurement": "LOAEL", "setting": "rat [8]; systemic / pathology microscopic / kidney / dilatation + systemic / pathology microscopic / adrenal gland / fatty change", "value": 300, "unit": "mg/kg/day"}, {"measurement": "NEL", "setting": "rat [8]; [27]", "value": 100, "unit": "mg/kg/day"}, {"measurement": "NOAEL", "setting": "rat [8]; [27]", "value": 100, "unit": "mg/kg/day"}, {"measurement": "LEL", "setting": "rat [8]; systemic / pathology microscopic / kidney / dilatation + systemic / pathology microscopic / adrenal gland / fatty change + systemic / …", "value": 300, "unit": "mg/kg/day"}, {"measurement": "NEL", "setting": "mouse [9]; systemic / organ weight / liver / relative to body weight + systemic / pathology microscopic / liver / hypertrophy + systemic / pathology …", "value": 479, "unit": "mg/kg/day"}, {"measurement": "LOAEL", "setting": "mouse [9]; [28]", "value": 63.8, "unit": "mg/kg/day"}, {"measurement": "NOAEL", "setting": "mouse [9]; [28]", "value": 2.63, "unit": "mg/kg/day"}, {"measurement": "LEL", "setting": "rat [10]", "value": 250, "unit": "mg/kg/day"}, {"measurement": "LOAEL", "setting": "rat [10]", "value": 250, "unit": "mg/kg/day"}, {"measurement": "NEL", "setting": "rat [10]", "value": 60, "unit": "mg/kg/day"}, {"measurement": "NOAEL", "setting": "rat [10]", "value": 60, "unit": "mg/kg/day"}, {"measurement": "LEL", "setting": "rat [11]; [29]", "value": 17.6, "unit": "mg/kg/day"}, {"measurement": "LOAEL", "setting": "rat [11]; [29]", "value": 17.6, "unit": "mg/kg/day"}, {"measurement": "NEL", "setting": "rat [11]; [30]", "value": 1.74, "unit": "mg/kg/day"}, {"measurement": "NOAEL", "setting": "rat [11]; [30]", "value": 1.74, "unit": "mg/kg/day"}, {"measurement": "LEL", "setting": "dog [12]", "value": 21, "unit": "mg/kg/day"}, {"measurement": "LOAEL", "setting": "dog [12]", "value": 21, "unit": "mg/kg/day"}, {"measurement": "NEL", "setting": "dog [12]", "value": 4.05, "unit": "mg/kg/day"}, {"measurement": "NOAEL", "setting": "dog [12]", "value": 4.05, "unit": "mg/kg/day"}, {"measurement": "LEL", "setting": "dog [13]", "value": 43, "unit": "mg/kg/day"}, {"measurement": "LOAEL", "setting": "dog [13]", "value": 43, "unit": "mg/kg/day"}, {"measurement": "NEL", "setting": "dog [13]", "value": 32.6, "unit": "mg/kg/day"}, {"measurement": "NOAEL", "setting": "dog [13]", "value": 32.6, "unit": "mg/kg/day"}, {"measurement": "LOAEL", "setting": "rat [14]; [31]", "value": 81.7, "unit": "mg/kg/day"}, {"measurement": "NOAEL", "setting": "rat [14]; [31]", "value": 8.04, "unit": "mg/kg/day"}, {"measurement": "LEL", "setting": "rat [14]; [32]", "value": 8.04, "unit": "mg/kg/day"}, {"measurement": "NEL", "setting": "rat [14]; [32]", "value": "< 8.04", "unit": "mg/kg/day"}, {"measurement": "LEL", "setting": "rat [15]", "value": 63, "unit": "mg/kg/day"}, {"measurement": "LOAEL", "setting": "rat [15]", "value": 63, "unit": "mg/kg/day"}, {"measurement": "NEL", "setting": "rat [15]", "value": 21, "unit": "mg/kg/day"}, {"measurement": "NOAEL", "setting": "rat [15]", "value": 21, "unit": "mg/kg/day"}]}
